# In patent US11247976B2, “Synthetic ligands that modulate the activity of the RhlR quorum sensing receptor” (Wisconsin Alumni Research Foundation, priority 2016, dated 2022):
# Marks after values point to notes of the source that are not given here.
# Molecular target: T1, RhlR (Pseudomonas aeruginosa, UniProt P54292)
# T1 construct: expressed in transfected cells; host or cells: E. coli JLD271 (ΔsdiA) with pJN105R2 (arabinose-induced) and pSC11-rhlI*
# Test: P. aeruginosa RhlR reporter agonism assay (PAO-JP2/prhlI-LVAgfp)
# Assay type: cell-based
# Settings: not given
# T1 sequence (P54292 whole entry): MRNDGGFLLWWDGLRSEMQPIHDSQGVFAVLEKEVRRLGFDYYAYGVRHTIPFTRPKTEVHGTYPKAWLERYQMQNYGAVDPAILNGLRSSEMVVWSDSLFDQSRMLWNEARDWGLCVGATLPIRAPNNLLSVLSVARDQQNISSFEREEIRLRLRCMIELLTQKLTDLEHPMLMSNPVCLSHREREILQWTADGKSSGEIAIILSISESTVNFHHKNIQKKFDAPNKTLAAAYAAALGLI
row,SMILES,EC50
1,CC(C)CC(=O)N[C@H]1CCCC1=O [RN36],11.2 µM
2,O=C(N[C@H]1CCCC1=O)C1CCC1 [RN12],7.35 µM
3,CC(C)CC(=O)N[C@H]1CCSC1=O [RN37],2.58 µM

# Same assay, conditions: read-out: Maximum Activation (%)
row,SMILES,Emax
1,CC(C)CC(=O)N[C@H]1CCCC1=O [RN36],96%
2,O=C(N[C@H]1CCCC1=O)C1CCC1 [RN12],96%
3,CC(C)CC(=O)N[C@H]1CCSC1=O [RN37],91%

# Molecular target: T1, RhlR
# Test: as above
# Assay type: cell-based
# Settings: P. aeruginosa reporter compared with E. coli reporter
# Description: (§1) All media and reagents for bacterial culture were purchased from commercial sources. Bacteria were cultured in Luria-Bertani broth (LB) at 37° C. with shaking at 200 rpm unless otherwise noted. The bacterial reporter strains used for this study were (i) the heterologous E. coli strain JLD271 (ΔsdiA) harboring the RhlR expression plasmid pJN105R2 and the rhlI-lacZ transcriptional fusion reporter pSC11-rhlI*, (ii) the heterologous E. coli strain JLD271 (ΔsdiA) harboring the LasR expression plasmid pJN105L and the […] transcriptional fusion reporter pSC11, and (iii) the P. aeruginosa strain PAO-JP2 (ΔlasrhlI) harboring the rhlI-gfp transcriptional fusion reporter prhlI-LVAgfp. Reporter strains JLD271/pJN105R2/pSC11-rhlI* and JLD271/pJN105L/pSC11 were grown in LB containing 100 μg/mL ampicillin and 10 μg/mL gentamicin. Freezer stocks of bacterial strains were maintained at −80° C. in 1:1 LB:50% glycerol.
# To evaluate the RhlR-modulatory activities of selected compounds in P. aeruginosa, the ΔlasIrhlI strain PAO-JP2 harboring plasmid prhlI-LVAgfp was used as previously reported.^38 Briefly, a subculture was prepared by diluting an overnight culture 1:100 in fresh LB and was grown to OD600=0.3. […] Subculture was treated with 100 nM OdDHL (to induce native expression of RhlR) by adding the appropriate amount of OdDHL stock solution in DMSO. The subculture was then dispensed ([…] aliquots) into each synthetic compound-containing well of the microtiter plate.
# Plates were incubated at 37° C. for 6 h, and GFP production was monitored by using a Synergy 2 plate reader (λex=500 nm, λem=540 nm; BioTek, Winooski, Vt.) and quantified with Gen5 1.05 software (BioTek). The final OD600 for each well was measured to normalize GFP production to cell density. All synthetic compounds were tested in triplicate, and three separate trials were performed with unique cultures. Agonism dose-response analyses were performed by testing compounds over a range of concentrations with the RhlR reporter.
# Library compounds J18 and J24, as well as controls BHL and S4, were evaluated for potency in the native genetic background of RhlR by using the P. aeruginosa strain PAO-JP2 (ΔlasIrhlI) harboring the RhlR reporter plasmid prhlI-LVAgfp (Table 3). Because the production of RhlR is dependent on LasR (in LB medium), all assays were performed in the presence of 100 nM OdDHL, enabling immediate transcription of RhlR via LasR activation. […] All compounds also retained similar potencies when screened in the P. aeruginosa background.
row,SMILES,RhlR agonist potency in words
1,CC(C)CC(=O)N[C@H]1CCCC1=O [RN36],not able to retain potency
2,O=C(N[C@H]1CCCC1=O)C1CCC1 [RN12],maintained activity between the two different reporters
3,CC(C)CC(=O)N[C@H]1CCSC1=O [RN37],not able to retain potency

# Molecular target: T2, LasR (Pseudomonas aeruginosa, UniProt P25084)
# T2 construct: expressed in transfected cells; host or cells: E. coli JLD271 (ΔsdiA) with pJN105L and pSC11
# T2 sequence (P25084 whole entry): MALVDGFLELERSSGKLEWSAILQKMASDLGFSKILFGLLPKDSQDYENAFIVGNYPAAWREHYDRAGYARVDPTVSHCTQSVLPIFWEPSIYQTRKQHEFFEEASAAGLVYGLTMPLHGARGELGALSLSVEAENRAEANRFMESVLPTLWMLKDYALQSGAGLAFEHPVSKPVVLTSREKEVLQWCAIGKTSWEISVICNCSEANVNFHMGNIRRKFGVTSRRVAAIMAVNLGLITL
# Test: Selectivity of RhlR agonism over LasR agonism (E. coli LasR reporter JLD271/pJN105L/pSC11)
# Assay type: cell-based, P. aeruginosa
# Settings: tested concentration 1 mM; RhlR % activity divided by LasR % activity; > = negligible activity in LasR reporter
# Description: as §1
# To evaluate the modulatory activities of library compounds on RhlR and LasR using E. coli reporters, the strains JLD271/pJN105R2/pSC11-rhlI* and JLD271/pJN105L/pSC11 were used, respectively, as previously described.^38, 51 The following modifications were used in the RhlR agonism reporter assay, non-native compounds (10 μM or 1 mM) were compared to 1 mM BHL as the positive control. Briefly, a subculture was prepared by diluting an overnight culture 1:10 with fresh media containing 100 μg/mL ampicillin and 10 μg/mL gentamicin, and was incubated until it had grown to OD600=0.45. In all assays, L-arabinose was added to a final concentration of 4 mg/mL to induce RhlR expression. For RhlR agonism assays, activities of test compounds were measured relative to 1 mM BHL (the concentration required to induce a maximal level of RhlR activity). For RhlR antagonism assays, test compounds were competed against a concentration of BHL approximately equal to its EC50 value (10 μM). Activity was measured relative to 10 μM BHL. Inhibition was calculated by subtracting 100% from the relative activity value. Thus, 0% inhibition mimics represents no competitive displacement of 10 μM BHL by a test compound. In all assays, modifications were made to the standard Miller assay protocol to accommodate the use of the chlorophenol red-β-D-galactopyranoside (CPRG) β-galactosidase substrate. After cell lysis, 150 μL of the aqueous layer was transferred from each well of a solvent-resistant 96-well microtiter plate to the wells of a new clear, flat-bottom 96-well microtiter plate. CPRG (4 mg/mL in phosphate-buffered saline) was added to each well in 25 μL volumes. Plates were incubated at 30° C. until the positive control wells developed a red color (approximately 30 min). The amount of processed CPRG substrate was assessed by measuring the absorbance of each well at 570 nm. Enzymatic activity was calculated using the following equation: adjusted Miller units=1000·Abs570/(OD600·t·V),
# LasR assays were processed using the protocol for the substrate ortho-nitrophenyl-β-galactoside (ONPG) as previously described elsewhere.^53; and LasR antagonism assays were performed versus the EC50 for OdDHL (2 nM).
# The selectivity of certain compounds for RhlR over LasR was measured using a LasR reporter strain (details above). Table 6 provides a comparison of selectivity of RhlR agonism over LasR agonism for exemplary compounds. Table 7 provides a comparison of selectivity of RhlR antagonism over LasR antagonism for exemplary compounds.
row,SMILES,Fold selectivity of RhlR agonists over LasR agonism
1,CC(C)CC(=O)N[C@H]1CCCC1=O [RN36],>84^b fold
2,O=C(N[C@H]1CCCC1=O)C1CCC1 [RN12],6.8 fold
3,CC(C)CC(=O)N[C@H]1CCSC1=O [RN37],13 fold

# Same assay, conditions: tested concentration 10 μm; RhlR % activity divided by LasR % activity; > = negligible activity in LasR reporter
row,SMILES,Fold selectivity of RhlR agonists over LasR agonism
1,CC(C)CC(=O)N[C@H]1CCCC1=O [RN36],105^ fold
2,O=C(N[C@H]1CCCC1=O)C1CCC1 [RN12],>56^b fold
3,CC(C)CC(=O)N[C@H]1CCSC1=O [RN37],>85^b fold
